From US8278336B2, “Compounds” (Boehringer Ingelheim International GmbH, priority 2007, dated 2012)

Target: T1, human CGRP receptor (Homo sapiens, UniProt O60894+Q16602)
T1 construct: SK-N-MC membranes (˜20 μg protein) are incubated for 180 minutes at ambient temperature; endogenous in cells; host or cells: SK-N-MC cells (membrane preparation)
Experiment: Binding studies with SK-N-MC cells (125I-CGRP displacement on SK-N-MC membranes)
Conditions: 50 pM 125I-iodotyrosyl-CGRP, 180 minutes at ambient temperature
Protocol: A. Binding Studies with SK-N-MC Cells (Expressing the Human CGRP Receptor)
SK-N-MC membranes (˜20 μg protein) are incubated for 180 minutes at ambient temperature with 50 pM ^125I-iodotyrosyl-Calcitonin-Gene-Related Peptide and increasing concentrations of the test substances in a total volume of […] (assay buffer: 10 mM tris, 50 mM NaCl, 5 mM MgCl2, 1 mM EDTA, pH=7.4). The incubation is ended by rapid filtration through GF/B-glass fibre filters treated with polyethyleneimine (0.1%) using a cell harvester. The protein-bound radioactivity is measured using a gamma counter. Non-specific binding is defined as the bound radioactivity after the presence of 1 μM BIBN4096BS during incubation.
The concentration binding curves are analysed using computer-aided non-linear curve fitting.

T1 sequence (Q16602 23-461): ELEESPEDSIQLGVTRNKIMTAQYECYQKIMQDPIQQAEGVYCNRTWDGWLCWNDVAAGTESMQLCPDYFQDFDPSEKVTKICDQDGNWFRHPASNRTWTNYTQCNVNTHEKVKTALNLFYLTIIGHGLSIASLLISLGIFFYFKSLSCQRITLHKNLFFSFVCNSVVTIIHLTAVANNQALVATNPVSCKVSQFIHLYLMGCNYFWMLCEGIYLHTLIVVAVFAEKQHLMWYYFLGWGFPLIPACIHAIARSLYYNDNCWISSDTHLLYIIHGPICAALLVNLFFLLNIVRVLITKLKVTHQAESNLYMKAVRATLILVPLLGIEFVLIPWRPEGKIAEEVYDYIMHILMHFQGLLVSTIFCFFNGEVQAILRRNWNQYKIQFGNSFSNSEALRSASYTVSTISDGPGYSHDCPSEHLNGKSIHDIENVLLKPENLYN
T1 sequence (O60894 27-148): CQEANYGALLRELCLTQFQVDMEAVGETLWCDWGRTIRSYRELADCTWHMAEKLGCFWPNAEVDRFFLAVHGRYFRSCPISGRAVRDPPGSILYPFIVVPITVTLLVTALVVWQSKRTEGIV

Ki | Compound
480 nM | Cn1c(N2CCC(n3c(=O)[nH]c4ncccc43)CC2)cc(C(=O)N2CCc3cc(F)ccc32)cc1=O [Example 2, 4′-(5-fluoro-2,3-dihydroindole-1-carbonyl)-1′-methyl-4-(2-oxo-2,3-dihydroimidazo[4,5-b]-pyridin-1-yl)-3,4,5,6-tetrahydro-2H,1′H-[1,2′]bipyridinyl-6′-one]
8.4 nM | COc1ccc2c(c1)CCN(C1CCN(c3cc(C(=O)N4CCc5cc(F)ccc54)cc(=O)[nH]3)CC1)C(=O)N2 [Example 3, 3-[4′-(5-fluoro-2,3-dihydroindole-1-carbonyl)-6′-oxo-3,4,5,6,1′,6′-hexahydro-2H-1,2′-bipyridinyl-4-yl]-7-methoxy-1,3,4,5-tetrahydro-1,3-benzodiazepin-2-one]
3.8 nM | CC1(C)CN(C(=O)c2cc(N3CCC(n4c(=O)[nH]c5ncccc54)CC3)[nH]c(=O)c2)c2ccc(F)cc21 [Example 4, 4′-(5-fluoro-3,3-dimethyl-2,3-dihydroindole-1-carbonyl)-4-(2-oxo-2,3-dihydroimidazo[4,5-b]-pyridin-1-yl)-3,4,5,6-tetrahydro-2H,1′H-[1,2′]bipyridinyl-6′-one]
